One experiment deals with T1, LXRα (Homo sapiens, UniProt Q13133).
T1 sequence (Q13133 1-447): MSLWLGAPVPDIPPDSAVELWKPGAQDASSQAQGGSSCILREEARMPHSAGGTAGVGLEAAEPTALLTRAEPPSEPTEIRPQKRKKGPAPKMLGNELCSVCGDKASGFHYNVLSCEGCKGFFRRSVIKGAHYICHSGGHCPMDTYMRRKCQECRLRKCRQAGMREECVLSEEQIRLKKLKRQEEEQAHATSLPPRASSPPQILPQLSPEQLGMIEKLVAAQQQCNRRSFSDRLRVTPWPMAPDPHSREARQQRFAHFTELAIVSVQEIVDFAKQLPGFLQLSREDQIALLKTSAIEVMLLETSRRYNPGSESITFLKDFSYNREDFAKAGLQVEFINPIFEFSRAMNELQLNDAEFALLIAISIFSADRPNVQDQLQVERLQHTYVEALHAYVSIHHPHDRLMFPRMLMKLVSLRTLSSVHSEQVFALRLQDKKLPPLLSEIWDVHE
The experiment in a line: LXRα NHR screen (DiscoverX NHR-Scan, β-gal reporter). It is filed as cell-based. The procedure: (§1) Receptor Binding Assays. Nuclear hormone (NHR) assays were performed by DiscoverX (Fremont, CA) on their NHR-Scan platform of cell-based protein-protein interaction assays. This platform uses a […] reporter that activates upon interaction of full-length receptor protein with steroid coactivator receptor peptides. In agonist mode, activity of CL2-57 at 10 μM was compared to maximal activity of published positive control agonists; in antagonist mode, reduction in activity with 10 μM CL2-57 from that observed at […] of published agonists was quantified.

For another experiment, the target named is T2, PPARβ/δ (Homo sapiens, UniProt Q03181).
T2 sequence (Q03181 1-441): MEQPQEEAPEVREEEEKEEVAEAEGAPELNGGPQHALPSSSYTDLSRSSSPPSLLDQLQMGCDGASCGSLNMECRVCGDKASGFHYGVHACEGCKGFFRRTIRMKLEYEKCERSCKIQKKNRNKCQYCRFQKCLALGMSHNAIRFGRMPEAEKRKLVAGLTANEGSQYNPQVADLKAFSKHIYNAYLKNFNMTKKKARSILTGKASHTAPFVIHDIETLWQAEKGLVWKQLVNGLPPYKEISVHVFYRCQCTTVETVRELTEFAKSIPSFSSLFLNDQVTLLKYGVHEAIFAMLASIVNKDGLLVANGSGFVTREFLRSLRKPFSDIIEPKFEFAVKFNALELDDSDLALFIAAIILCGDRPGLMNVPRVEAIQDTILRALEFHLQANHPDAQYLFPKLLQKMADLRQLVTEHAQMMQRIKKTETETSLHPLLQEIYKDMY
The experiment is described as follows: PPARβ/δ NHR screen, antagonist mode. The settings on record: cell-based β-gal reporter assay, 10 μM. The procedure: as §1

Experiment [1] deals with T3, PPARγ (Homo sapiens, UniProt P37231).
T3 sequence (P37231 1-505): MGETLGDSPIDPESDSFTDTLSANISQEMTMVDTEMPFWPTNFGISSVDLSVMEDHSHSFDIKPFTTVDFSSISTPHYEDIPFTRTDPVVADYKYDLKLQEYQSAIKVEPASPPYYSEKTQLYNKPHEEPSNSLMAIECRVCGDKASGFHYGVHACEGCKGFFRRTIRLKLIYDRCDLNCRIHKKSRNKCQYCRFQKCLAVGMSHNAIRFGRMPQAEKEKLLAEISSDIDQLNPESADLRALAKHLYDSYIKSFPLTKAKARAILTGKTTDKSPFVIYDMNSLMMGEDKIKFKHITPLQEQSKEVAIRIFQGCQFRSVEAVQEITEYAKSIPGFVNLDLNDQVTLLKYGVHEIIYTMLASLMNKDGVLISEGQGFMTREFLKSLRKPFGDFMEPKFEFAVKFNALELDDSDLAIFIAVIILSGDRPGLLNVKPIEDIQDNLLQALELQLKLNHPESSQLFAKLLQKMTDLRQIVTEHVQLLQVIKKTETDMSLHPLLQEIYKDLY
The experiment is described as follows: PPARγ NHR screen, antagonist mode. The settings on record: cell-based β-gal reporter assay, 10 μM. As to the method: as §1

Experiment [2] has as its target T4, PPARγ (Homo sapiens, UniProt P37231).
T4 construct: purchased Thermo Fisher Scientific
T4 sequence (P37231 232-505 limits assumed): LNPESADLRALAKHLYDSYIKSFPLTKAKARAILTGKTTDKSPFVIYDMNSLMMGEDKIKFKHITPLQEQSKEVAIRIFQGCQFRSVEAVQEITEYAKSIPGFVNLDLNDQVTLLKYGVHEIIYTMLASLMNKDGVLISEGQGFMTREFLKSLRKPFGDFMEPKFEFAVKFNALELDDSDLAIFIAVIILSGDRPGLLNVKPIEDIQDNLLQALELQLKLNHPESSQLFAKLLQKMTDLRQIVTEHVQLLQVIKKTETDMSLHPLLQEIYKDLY
The experiment in a line: LanthaScreen TR-FRET coactivator assay PPARγ (antagonism of pioglitazone). It is filed as biochemical. As to the method:
TR-FRET Receptor Binding Assays. LanthaScreen” TR-FRET coactivator assay kits for LXRβ (Thermo Fisher Scientific) and PPARγ (Thermo Fisher Scientific) were performed according to manufacturer instructions using low-binding black 384-well plates and Synergy Neo2 plate reader. For the PPARγ assay, standardization was first performed with control agonist (pioglitazone), then run in two antagonist assays: dose-response of pioglitazone with or without a single concentration of CL2-57, and dose-response of CL2-57 cotreated with a single concentration (500 nM) of pioglitazone. Each compound dose was performed in quadruplicate on each plate, and each experiment was performed in triplicate.
On the technique in general: In TR-FRET formats the signal depends on donor and acceptor labels being close together.

Here are results for 1 compound from US20240199572A1, “COMPOUNDS, COMPOSITIONS, AND METHODS FOR TREATING TYPE 2 DIABETES AND DEMENTIA” (THE BOARD OF TRUSTEES OF THE UNIVERSITY OF ILLINOIS, priority 2021, published 2024).

Turning to `CCOC(=O)c1cccc(NC(=O)c2sc(Cl)cc2S(=O)(=O)N(C)c2ccc(OCC)c(OCC)c2)c1` [CL2-57, ethyl 3-(5-chloro-3-(N-(3,4-diethoxyphenyl)-N-methylsulfamoyl)thiophene-2-carboxamido) benzoate], the “LXRα NHR screen, activity of CL2-57 (10 μM) as % of T0901317 (1 μM)” value at LXRα was 34%. Further, the “Functional mode at PPARβ/δ” value on PPARβ/δ was “weak antagonist”. For the same compound, on PPARγ [1], the “Functional mode at PPARγ” value was “weak antagonist”. On PPARγ [2], the “Activity in PPARγ TR-FRET binding assay” value was “Weak competitive antagonism”. The “Right-shift in the TR-FRET dose-response for pioglitazone” value at PPARγ [2] (addition of 10 μM CL2-57, p<0.01) came out at 2.1 fold. The TR-FRET signal reduction at PPARγ [2] (constant pioglitazone concentration, CL2-57 at concentrations ≥1 μM) is recorded as 20-45%.
